Drawing on patent publication US10017503B2, “Compounds, compositions, and methods for increasing CFTR activity” (Proteostasis Therapeutics, Inc., priority 2014, dated 2018), this text covers Ieq activity for 11 molecules.

The structures appear in SMILES notation.

The experiment deals with T1, ΔF508-CFTR (Homo sapiens, UniProt P13569, DEL508-508).
T1 construct: Primary lung epithelial cells homozygous for the Cystic Fibrosis-causing ΔF508 mutation were differentiated for a minimum of 4 weeks; endogenous in cells; host or cells: primary lung (bronchial) epithelial cells (hBE) homozygous for ΔF508, differentiated at an air-liquid interface
T1 sequence (P13569 with tags, fused parts or gaps DEL508-508): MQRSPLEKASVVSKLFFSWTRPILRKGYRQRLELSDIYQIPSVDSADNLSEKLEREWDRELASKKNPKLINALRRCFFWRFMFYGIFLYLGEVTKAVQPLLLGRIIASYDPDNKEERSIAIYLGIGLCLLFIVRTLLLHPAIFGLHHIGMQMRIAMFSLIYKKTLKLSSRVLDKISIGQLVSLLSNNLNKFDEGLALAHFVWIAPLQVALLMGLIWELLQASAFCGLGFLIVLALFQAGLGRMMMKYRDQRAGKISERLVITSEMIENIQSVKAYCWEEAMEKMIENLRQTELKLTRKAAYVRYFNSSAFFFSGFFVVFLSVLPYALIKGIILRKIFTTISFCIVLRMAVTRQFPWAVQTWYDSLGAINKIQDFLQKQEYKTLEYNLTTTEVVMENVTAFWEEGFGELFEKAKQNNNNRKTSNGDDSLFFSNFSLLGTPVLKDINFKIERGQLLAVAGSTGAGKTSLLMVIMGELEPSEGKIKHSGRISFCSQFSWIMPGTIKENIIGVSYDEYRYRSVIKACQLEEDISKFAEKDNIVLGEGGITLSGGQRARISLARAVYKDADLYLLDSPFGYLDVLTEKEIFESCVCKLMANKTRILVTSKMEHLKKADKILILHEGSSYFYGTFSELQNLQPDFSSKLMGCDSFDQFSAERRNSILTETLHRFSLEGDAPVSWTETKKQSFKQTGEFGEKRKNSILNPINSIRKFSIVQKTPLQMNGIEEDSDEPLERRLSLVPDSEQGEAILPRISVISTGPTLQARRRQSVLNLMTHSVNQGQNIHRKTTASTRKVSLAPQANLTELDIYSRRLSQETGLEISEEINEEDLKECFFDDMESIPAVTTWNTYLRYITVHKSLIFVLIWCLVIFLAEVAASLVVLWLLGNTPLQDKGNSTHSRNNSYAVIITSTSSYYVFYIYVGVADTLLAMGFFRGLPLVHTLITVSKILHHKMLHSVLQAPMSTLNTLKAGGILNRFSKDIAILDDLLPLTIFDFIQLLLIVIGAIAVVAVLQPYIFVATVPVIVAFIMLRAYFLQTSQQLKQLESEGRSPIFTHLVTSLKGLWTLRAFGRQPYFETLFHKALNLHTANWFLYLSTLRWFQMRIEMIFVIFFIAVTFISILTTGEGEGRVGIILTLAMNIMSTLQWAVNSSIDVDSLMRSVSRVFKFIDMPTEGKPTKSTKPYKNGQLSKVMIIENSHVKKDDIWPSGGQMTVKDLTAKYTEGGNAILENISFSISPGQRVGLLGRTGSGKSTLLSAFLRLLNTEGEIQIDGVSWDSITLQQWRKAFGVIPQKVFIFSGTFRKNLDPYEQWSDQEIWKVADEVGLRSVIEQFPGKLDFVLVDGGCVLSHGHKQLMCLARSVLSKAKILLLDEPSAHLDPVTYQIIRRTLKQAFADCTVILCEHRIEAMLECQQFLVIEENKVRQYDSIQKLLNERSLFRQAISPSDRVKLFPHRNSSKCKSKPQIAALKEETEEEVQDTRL
Briefly: hBE equivalent current (Ieq) assay. In kind it is cell-based. Conditions: AUC of equivalent chloride current as % of VX-809 (1 uM); compound at 10 uM and VX-809 at 1 uM; primary hBE cells homozygous ΔF508, 24 h treatment. As to the method:
ii. hBE Equivalent Current (Ieq) Assay Primary lung epithelial cells homozygous for the Cystic Fibrosis-causing ΔF508 mutation were differentiated for a minimum of 4 weeks in an air-liquid interface on Costar 24 well HTS filter plates prior to the equivalent current (Ieq) measurements. Cells were apically mucus-washed for 30 minutes 24 h prior to treatment with compounds. The basolateral media was removed and replaced with media containing the compound of interest diluted to its final concentration from DMSO stocks. Treated cells were incubated at 37° C. and 5% CO2 for 24 hours. At the end of the treatment period, the media was changed to the Ieq experimental solution for 30 minutes before the experiment and plates are maintained in a CO2-free incubator during this period. The plates containing the cells were then placed in pre-warmed heating blocks at 36° C.±0.5 for 15 minutes before measurements are taken. The transepithelial voltage (VT) and conductance (GT) were measured using a custom 24 channel current clamp (TECC-24) with 24 well electrode manifold. The Ieq assay measurements were made following additions with standardized time periods: 1. The baseline VT and GT values were measured for approximately 20 minutes. 2. Benzamil was added to block ENaC for 15 minutes. 3. Forskolin plus VX-770 were added to maximally activate ΔF508-CFTR for 27 minutes. 4. Bumetanide was added to inhibit the NaK2Cl cotransporter and shut-off secretion of chloride. The activity data captured was the area under the curve (AUC) for the traces of the equivalent chloride current. The AUC was collected from the time of the forskolin/VX-770 addition until the inhibition by bumetanide addition. Correction in response to compound treatment was scored as the increase in the AUC for compound-treated samples over that of vehicle-treated samples. (** indicates activity ≥200% of VX-809 (1 uM) with compound at 10 uM and VX-809 at 1 uM; * indicates activity 100-200% of VX-809 (1 uM) with compound at 10 uM and VX-809 at 1 uM. ^## indicates activity ≥200% of VX-809 (3 uM) with compound at 10 uM and VX-809 at 3 uM; ^# indicates activity 100-200% of VX-809 (3 uM) with compound at 10 uM and VX-809 at 3 uM.
For `CC(O)c1nnc(NS(=O)(=O)CCNC(=O)c2cc(-c3ccccc3)on2)s1` (stereo in doubt) [Compound B8, (S)—N-(2-(N-(5-(1-hydroxyethyl)-1,3,4-thiadiazol-2-yl)sulfamoyl)ethyl)-5-phenylisoxazole-3-carboxamide], the Ieq activity result is “* (activity 100-200% of VX-809 (1 uM) with compound at 10 uM and VX-809 at 1 uM)”.
In the case of `CC(O)c1nnc(NS(=O)(=O)CCNC(=O)c2cc(-c3ccccc3)on2)s1` (stereo in doubt) [Compound B9, (R)—N-(2-(N-(5-(1-hydroxyethyl)-1,3,4-thiadiazol-2-yl)sulfamoyl)ethyl)-5-phenylisoxazole-3-carboxamide] it was “* (activity 100-200% of VX-809 (1 uM) with compound at 10 uM and VX-809 at 1 uM)”; in that of `O=C(NCCCNS(=O)(=O)c1ncc[nH]1)c1cc(-c2ccccc2)on1` [Compound B1], “** (activity ≥200% of VX-809 (1 uM) with compound at 10 uM and VX-809 at 1 uM)”.
With `CN(CCCNC(=O)c1cc(-c2ccccc2)on1)S(=O)(=O)c1ncc[nH]1` [Compound B2, N-(3-(N-methyl-1H-imidazole-2-sulfonamido)propyl)-5-phenylisoxazole-3-carboxamide], the Ieq activity entry is “** (activity ≥200% of VX-809 (1 uM) with compound at 10 uM and VX-809 at 1 uM)”.
In the case of `O=C(NCCNS(=O)(=O)c1cc(CO)n[nH]1)c1cc(-c2ccccc2)on1` [Compound B3, N-(2-((3-(hydroxymethyl)-1H-pyrazole)-5-sulfonamido)ethyl)-5-phenylisoxazole-3-carboxamide] it was “* (activity 100-200% of VX-809 (1 uM) with compound at 10 uM and VX-809 at 1 uM)”.
To `O=C(NCCCNS(=O)(=O)c1cc(CO)n[nH]1)c1cc(-c2ccccc2)on1` [Compound B4, N-(3-((3-(hydroxymethyl)-1H-pyrazole)-5-sulfonamido)propyl)-5-phenylisoxazole-3-carboxamide] belongs “** (activity ≥200% of VX-809 (1 uM) with compound at 10 uM and VX-809 at 1 uM)”; to `O=C(NCCCNS(=O)(=O)c1ncccn1)c1cc(-c2ccccc2)on1` [Compound B5, 5-phenyl-N-(3-(pyrimidine-2-sulfonamido)propyl)isoxazole-3-carboxamide], “** (activity ≥200% of VX-809 (1 uM) with compound at 10 uM and VX-809 at 1 uM)”; to `O=C(NCCCNS(=O)(=O)c1ccccn1)c1cc(-c2ccccc2)on1` [Compound B6, 5-phenyl-N-(3-(pyridine-2-sulfonamido)propyl)isoxazole-3-carboxamide], “** (activity ≥200% of VX-809 (1 uM) with compound at 10 uM and VX-809 at 1 uM)”.
Turning to `Nc1cc(CO)nn1S(=O)(=O)CCNC(=O)c1cc(-c2ccccc2)on1` [Compound B7, N-(2-((5-amino-3-(hydroxymethyl)-1H-pyrazol-1-yl)sulfonyl)ethyl)-5-phenylisoxazole-3-carboxamide], the Ieq activity entry is “* (activity 100-200% of VX-809 (1 uM) with compound at 10 uM and VX-809 at 1 uM)”.
To `CN(CCCNC(=O)c1cc(-c2ccccc2)on1)S(=O)(=O)c1nccn1C` [Compound B10, N-(3-((N-1-dimethyl-1H-imidazole)-2-sulfonamido)propyl)-5-phenylisoxazole-3-carboxamide] belongs “* (activity 100-200% of VX-809 (1 uM) with compound at 10 uM and VX-809 at 1 uM)”; to `COCn1ccnc1S(=O)(=O)N(C)CCCNC(=O)c1cc(-c2ccccc2)on1` [Compound B11, N-(3-((1-(methoxymethyl)-N-methyl-1H-imidazole)-2-sulfonamido)propyl)-5-phenylisoxazole-3-carboxamide], “** (activity ≥200% of VX-809 (1 uM) with compound at 10 uM and VX-809 at 1 uM)”.
